Test results as given in patent US10800791B2, “Triazole ACC inhibitors and uses thereof” (Gilead Apollo, LLC, priority 2015, dated 2020).
Values after ≈ are worked out from the molar mass of the structure shown. Where two headings read alike, the source gives them in different places.

Experiments:
C. parapsilosis = experiment: Antifungal Activity Assay (broth microtiter MIC), C. parapsilosis; format: cell-based, Candida parapsilosis; conditions: Lodderomyces parapsilosis, ATCC22019, 48 h
Method in brief: (§1)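 Endpoint: lowest concentration visibly inhibiting growth relative to control after 48 h. Inoculum of 2.5×10^3 CFU/mL final in RPMI 1640+MOPS, prepared from overnight 35° C agar cultures; test compounds diluted in water to 128 μg/mL before plating.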

Septoria tritici (St) = experiment: Growth inhibition assay of fungal pathogens, St; format: cell-based; conditions: Zymoseptoria tritici, 48 h
Method in brief: (§2)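 Spore suspension in 17% V8 liquid media; cpd final 50/10/2 or 2/0.4/0.08 ppm, 2% DMSO. OD600 + visual, 24 & 48 h; % inhibition at 48 h vs 2% DMSO ctrl.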

Diplodia maydis (Dm) = experiment: Growth inhibition assay of fungal pathogens, Dm; format: cell-based; conditions: Stenocarpella maydis, 48 h
Method in brief: as §2

Botrtyis cinerea (Bc) = experiment: Growth inhibition assay of fungal pathogens, Bc; format: cell-based; conditions: 48 h
Method in brief: as §2

Rhizoctonia solani (Rs) = experiment: Growth inhibition assay of fungal pathogens, Rs; format: cell-based; conditions: 48 h
fungal (fACC2) = fungal (fACC2) (UniProt Q00955); conditions: read-out: fACC2 (in vitro ACC2 Inhibition Assay, IC50), ADP-Glo, 5 nM ACC2, 20 μM ATP, 20 μM acetyl-CoA
C. albicans = experiment: Antifungal Activity Assay (broth microtiter MIC), C. albicans; format: cell-based, Candida albicans; conditions: Candida albicans, ATCC90028, 48 h
Method in brief: as §1

[1] = test system: Phytophthora capsici (Pc); experiment: Growth inhibition assay of fungal pathogens, Pc; format: cell-based; conditions: 48 h
Method in brief: as §2

human (hACC2) = human (hACC2) (Homo sapiens, UniProt O00763); experiment: In vitro ACC inhibition assay (ADP-Glo), hACC2; format: biochemical; conditions: 5 nM ACC2, 20 μM ATP, 20 μM acetyl-CoA
Description: The detailed procedure is as follows. […] 10 μL ADP glo reagent was added. […] 20 μL kinase detection reagent was added.

[2] = test system: Collectotrichum graminicola (Cg); experiment: Growth inhibition assay of fungal pathogens, Cg; format: cell-based; conditions: 48 h
Method in brief: as §2

[3] = read-out: MIC, C. parapsilosis ATCC 22019, Table 3a, 3 replicates, MIC recorded at 48 h
[4] = read-out: MIC, C. parapsilosis ATCC 22019, Table 3b (additional results), 3 replicates, MIC recorded at 48 h
[5] = read-out: Concentration at 90% Inhibition St, Septoria tritici, growth inhibition at 48 hours vs 2% DMSO control
[6] = read-out: Concentration at 90% Inhibition St, Septoria tritici, growth inhibition vs 2% DMSO control at 48 hours
[7] = read-out: Concentration at 90% Inhibition Dm, Diplodia maydis, growth inhibition at 48 hours vs 2% DMSO control
[8] = read-out: Concentration at 90% Inhibition Dm, Diplodia maydis, growth inhibition vs 2% DMSO control at 48 hours
[9] = read-out: Concentration at 90% Inhibition Bc, Botrtyis cinerea, growth inhibition at 48 hours vs 2% DMSO control
[10] = read-out: Concentration at 90% Inhibition Bc, Botrtyis cinerea, growth inhibition vs 2% DMSO control at 48 hours
[11] = read-out: Concentration at 90% Inhibition Rs, Rhizoctonia solani, mycelial plugs, growth inhibition at 48 hours vs 2% DMSO control
[12] = read-out: Concentration at 90% Inhibition Rs, Rhizoctonia solani, mycelial plugs, growth inhibition vs 2% DMSO control at 48 hours
[13] = read-out: MIC, C. albicans ATCC 90028, Table 3a, 3 replicates, MIC recorded at 48 h
[14] = read-out: MIC, C. albicans ATCC 90028, Table 3b (additional results), 3 replicates, MIC recorded at 48 h
[15] = read-out: Concentration at 90% Inhibition Pc, Phytophthora capsici, growth inhibition at 48 hours vs 2% DMSO control
[16] = read-out: Concentration at 90% Inhibition Pc, Phytophthora capsici, growth inhibition vs 2% DMSO control at 48 hours
[17] = read-out: Concentration at 90% Inhibition Cg, Collectotrichum graminicola, growth inhibition at 48 hours vs 2% DMSO control
[18] = read-out: Concentration at 90% Inhibition Cg, Collectotrichum graminicola, growth inhibition vs 2% DMSO control at 48 hours
[19] = Table 3a, ATCC 22019, 3 replicates, MIC recorded at 48 h, read-out: MIC, C. parapsilosis ATCC 22019
[20] = Table 3b (additional results), ATCC 22019, 3 replicates, MIC recorded at 48 h, read-out: MIC, C. parapsilosis ATCC 22019
[21] = Septoria tritici, growth inhibition at 48 hours vs 2% DMSO control, read-out: Concentration at 90% Inhibition St
[22] = Septoria tritici, growth inhibition vs 2% DMSO control at 48 hours, read-out: Concentration at 90% Inhibition St
[23] = Diplodia maydis, growth inhibition at 48 hours vs 2% DMSO control, read-out: Concentration at 90% Inhibition Dm
[24] = Diplodia maydis, growth inhibition vs 2% DMSO control at 48 hours, read-out: Concentration at 90% Inhibition Dm
[25] = Botrtyis cinerea, growth inhibition at 48 hours vs 2% DMSO control, read-out: Concentration at 90% Inhibition Bc
[26] = Botrtyis cinerea, growth inhibition vs 2% DMSO control at 48 hours, read-out: Concentration at 90% Inhibition Bc
[27] = mycelial plugs, growth inhibition at 48 hours vs 2% DMSO control, read-out: Concentration at 90% Inhibition Rs
[28] = mycelial plugs, growth inhibition vs 2% DMSO control at 48 hours, read-out: Concentration at 90% Inhibition Rs
[29] = Table 3a, ATCC 90028, 3 replicates, MIC recorded at 48 h, read-out: MIC, C. albicans ATCC 90028
[30] = Table 3b (additional results), ATCC 90028, 3 replicates, MIC recorded at 48 h, read-out: MIC, C. albicans ATCC 90028
[31] = growth inhibition at 48 hours vs 2% DMSO control, read-out: Concentration at 90% Inhibition Pc
[32] = growth inhibition vs 2% DMSO control at 48 hours, read-out: Concentration at 90% Inhibition Pc
[33] = Collectotrichum graminicola, growth inhibition at 48 hours vs 2% DMSO control, read-out: Concentration at 90% Inhibition Cg
[34] = Collectotrichum graminicola, growth inhibition vs 2% DMSO control at 48 hours, read-out: Concentration at 90% Inhibition Cg

Chain of fungal (fACC2) (Q00955 whole entry): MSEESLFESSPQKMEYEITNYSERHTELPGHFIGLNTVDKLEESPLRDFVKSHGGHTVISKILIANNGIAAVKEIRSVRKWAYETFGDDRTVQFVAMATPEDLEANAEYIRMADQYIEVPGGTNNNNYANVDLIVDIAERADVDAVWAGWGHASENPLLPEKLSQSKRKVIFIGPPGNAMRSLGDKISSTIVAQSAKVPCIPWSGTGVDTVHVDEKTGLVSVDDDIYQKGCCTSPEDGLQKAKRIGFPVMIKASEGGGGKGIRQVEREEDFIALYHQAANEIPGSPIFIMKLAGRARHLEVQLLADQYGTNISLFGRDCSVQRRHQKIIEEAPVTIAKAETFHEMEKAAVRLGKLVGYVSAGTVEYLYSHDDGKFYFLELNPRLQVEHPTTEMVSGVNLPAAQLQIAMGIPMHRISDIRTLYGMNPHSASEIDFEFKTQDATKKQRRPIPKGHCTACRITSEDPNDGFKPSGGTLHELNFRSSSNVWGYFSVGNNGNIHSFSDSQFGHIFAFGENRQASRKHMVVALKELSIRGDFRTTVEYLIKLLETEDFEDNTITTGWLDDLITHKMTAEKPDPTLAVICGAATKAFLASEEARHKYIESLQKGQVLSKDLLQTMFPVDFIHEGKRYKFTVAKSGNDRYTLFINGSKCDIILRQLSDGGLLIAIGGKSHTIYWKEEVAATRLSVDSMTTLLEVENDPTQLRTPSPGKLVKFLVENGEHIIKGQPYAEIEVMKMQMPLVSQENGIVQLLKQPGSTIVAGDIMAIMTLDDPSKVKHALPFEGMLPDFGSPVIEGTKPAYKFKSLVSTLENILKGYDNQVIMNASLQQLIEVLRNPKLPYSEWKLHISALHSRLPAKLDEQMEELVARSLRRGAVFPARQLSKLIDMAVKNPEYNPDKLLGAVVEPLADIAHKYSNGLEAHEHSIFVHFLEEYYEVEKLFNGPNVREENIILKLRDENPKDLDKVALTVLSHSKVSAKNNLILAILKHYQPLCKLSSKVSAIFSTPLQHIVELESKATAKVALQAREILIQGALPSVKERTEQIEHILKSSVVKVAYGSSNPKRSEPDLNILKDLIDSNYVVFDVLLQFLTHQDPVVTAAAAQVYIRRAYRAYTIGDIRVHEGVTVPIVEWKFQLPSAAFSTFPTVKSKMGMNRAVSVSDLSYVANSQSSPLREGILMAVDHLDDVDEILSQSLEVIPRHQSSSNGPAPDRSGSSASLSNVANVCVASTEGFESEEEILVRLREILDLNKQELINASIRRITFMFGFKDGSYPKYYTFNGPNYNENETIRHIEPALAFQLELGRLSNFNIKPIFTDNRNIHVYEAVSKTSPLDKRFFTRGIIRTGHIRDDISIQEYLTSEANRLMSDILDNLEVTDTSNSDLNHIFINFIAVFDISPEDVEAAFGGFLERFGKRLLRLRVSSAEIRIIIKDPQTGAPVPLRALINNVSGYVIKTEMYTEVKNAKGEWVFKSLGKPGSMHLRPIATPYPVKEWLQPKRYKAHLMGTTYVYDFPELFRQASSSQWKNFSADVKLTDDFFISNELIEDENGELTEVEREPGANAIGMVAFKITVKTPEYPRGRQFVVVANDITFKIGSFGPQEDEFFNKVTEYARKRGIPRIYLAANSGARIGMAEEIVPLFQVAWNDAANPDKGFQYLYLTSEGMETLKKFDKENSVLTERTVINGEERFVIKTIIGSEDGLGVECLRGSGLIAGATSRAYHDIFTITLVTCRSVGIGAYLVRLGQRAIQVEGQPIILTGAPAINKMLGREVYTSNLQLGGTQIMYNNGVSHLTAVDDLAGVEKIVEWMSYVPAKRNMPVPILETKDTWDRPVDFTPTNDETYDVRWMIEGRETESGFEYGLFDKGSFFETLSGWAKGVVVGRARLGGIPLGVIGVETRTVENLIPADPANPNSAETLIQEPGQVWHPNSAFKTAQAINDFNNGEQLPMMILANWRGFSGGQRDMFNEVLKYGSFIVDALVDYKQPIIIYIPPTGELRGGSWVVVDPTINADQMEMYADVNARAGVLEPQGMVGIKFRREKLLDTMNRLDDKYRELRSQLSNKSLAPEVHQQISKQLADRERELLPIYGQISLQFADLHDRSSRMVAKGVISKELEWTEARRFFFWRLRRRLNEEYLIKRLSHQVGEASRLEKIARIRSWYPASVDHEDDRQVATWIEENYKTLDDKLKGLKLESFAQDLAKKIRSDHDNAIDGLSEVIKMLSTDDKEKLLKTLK
Chain of human (hACC2) (O00763 whole entry): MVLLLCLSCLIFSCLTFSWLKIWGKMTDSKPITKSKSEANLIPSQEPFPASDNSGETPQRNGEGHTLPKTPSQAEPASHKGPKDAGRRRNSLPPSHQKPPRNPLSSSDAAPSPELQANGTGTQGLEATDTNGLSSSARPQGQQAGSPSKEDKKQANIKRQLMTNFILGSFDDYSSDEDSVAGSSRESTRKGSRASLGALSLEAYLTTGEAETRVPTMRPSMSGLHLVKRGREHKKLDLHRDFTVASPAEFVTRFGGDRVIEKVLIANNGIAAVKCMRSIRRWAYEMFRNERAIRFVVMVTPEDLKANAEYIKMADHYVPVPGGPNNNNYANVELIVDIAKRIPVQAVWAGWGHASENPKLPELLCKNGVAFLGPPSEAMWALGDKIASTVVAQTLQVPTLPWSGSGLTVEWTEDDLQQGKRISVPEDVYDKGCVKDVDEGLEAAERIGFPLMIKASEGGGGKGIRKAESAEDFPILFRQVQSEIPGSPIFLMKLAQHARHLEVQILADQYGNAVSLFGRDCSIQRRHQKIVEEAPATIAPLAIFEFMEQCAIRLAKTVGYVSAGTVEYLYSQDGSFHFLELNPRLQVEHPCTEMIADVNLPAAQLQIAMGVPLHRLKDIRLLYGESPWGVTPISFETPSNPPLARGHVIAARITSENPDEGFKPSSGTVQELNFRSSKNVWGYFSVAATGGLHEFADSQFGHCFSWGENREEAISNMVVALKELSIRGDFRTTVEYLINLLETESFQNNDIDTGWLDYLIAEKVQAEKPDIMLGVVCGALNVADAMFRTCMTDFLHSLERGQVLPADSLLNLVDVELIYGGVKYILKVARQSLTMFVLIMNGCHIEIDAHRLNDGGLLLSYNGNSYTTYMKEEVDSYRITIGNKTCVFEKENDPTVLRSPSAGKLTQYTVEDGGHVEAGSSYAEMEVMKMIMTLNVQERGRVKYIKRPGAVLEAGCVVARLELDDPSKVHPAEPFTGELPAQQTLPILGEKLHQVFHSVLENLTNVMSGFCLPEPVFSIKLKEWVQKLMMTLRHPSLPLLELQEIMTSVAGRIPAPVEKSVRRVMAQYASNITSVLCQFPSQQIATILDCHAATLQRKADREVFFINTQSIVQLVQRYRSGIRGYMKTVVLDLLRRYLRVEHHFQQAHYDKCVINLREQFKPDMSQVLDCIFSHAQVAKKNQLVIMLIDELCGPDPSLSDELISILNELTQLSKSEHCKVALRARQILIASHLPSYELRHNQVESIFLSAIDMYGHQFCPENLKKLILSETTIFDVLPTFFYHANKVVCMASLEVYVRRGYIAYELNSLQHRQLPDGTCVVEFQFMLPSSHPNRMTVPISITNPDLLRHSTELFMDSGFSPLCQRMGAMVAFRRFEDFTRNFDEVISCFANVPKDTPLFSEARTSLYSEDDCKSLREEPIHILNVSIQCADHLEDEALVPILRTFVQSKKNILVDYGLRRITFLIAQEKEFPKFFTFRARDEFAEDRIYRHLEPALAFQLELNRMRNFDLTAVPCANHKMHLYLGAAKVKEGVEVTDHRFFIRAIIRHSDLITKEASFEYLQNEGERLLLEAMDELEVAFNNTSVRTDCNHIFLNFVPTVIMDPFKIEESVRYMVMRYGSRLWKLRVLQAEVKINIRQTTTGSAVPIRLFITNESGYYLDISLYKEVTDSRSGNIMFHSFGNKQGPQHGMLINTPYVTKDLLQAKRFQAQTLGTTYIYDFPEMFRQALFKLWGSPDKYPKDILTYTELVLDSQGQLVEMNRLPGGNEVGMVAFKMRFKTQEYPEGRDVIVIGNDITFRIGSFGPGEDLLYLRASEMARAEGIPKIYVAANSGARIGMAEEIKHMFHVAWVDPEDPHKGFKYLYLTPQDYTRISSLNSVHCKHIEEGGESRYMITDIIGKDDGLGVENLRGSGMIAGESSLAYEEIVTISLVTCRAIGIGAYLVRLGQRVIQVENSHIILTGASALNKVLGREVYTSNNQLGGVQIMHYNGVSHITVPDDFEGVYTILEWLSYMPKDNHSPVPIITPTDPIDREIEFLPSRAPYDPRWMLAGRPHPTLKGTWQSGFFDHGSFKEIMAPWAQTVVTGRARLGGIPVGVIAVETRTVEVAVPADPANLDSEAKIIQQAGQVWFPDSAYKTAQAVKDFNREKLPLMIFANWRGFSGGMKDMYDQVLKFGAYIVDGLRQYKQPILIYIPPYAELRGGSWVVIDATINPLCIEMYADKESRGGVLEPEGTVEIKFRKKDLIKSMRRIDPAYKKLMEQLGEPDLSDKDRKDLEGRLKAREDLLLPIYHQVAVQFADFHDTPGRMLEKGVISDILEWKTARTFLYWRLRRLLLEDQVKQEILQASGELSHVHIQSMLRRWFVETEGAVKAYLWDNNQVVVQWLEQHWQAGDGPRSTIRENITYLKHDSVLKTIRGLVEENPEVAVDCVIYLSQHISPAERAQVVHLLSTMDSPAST

Compound	MIC (C. parapsilosis; [3])	MIC (C. parapsilosis; [4])	IC90 (Septoria tritici (St); [5])	IC90 (Septoria tritici (St); [6])	IC90 (Diplodia maydis (Dm); [7])	IC90 (Diplodia maydis (Dm); [8])	IC90 (Botrtyis cinerea (Bc); [9])	IC90 (Botrtyis cinerea (Bc); [10])	IC90 (Rhizoctonia solani (Rs); [11])	IC90 (Rhizoctonia solani (Rs); [12])	IC50 (fungal (fACC2); Table 2a)	IC50 (fungal (fACC2); Table 2b, additional results)	MIC (C. albicans; [13])	MIC (C. albicans; [14])	IC90 [1, 15]	IC90 [1, 16]	IC50 (human (hACC2); Table 2a)	IC50 (human (hACC2); Table 2b, additional results)	IC90 [2, 17]	IC90 [2, 18]	further results
C=CCNC(=O)C(C)(C)n1c(=O)c2c(C)c(-n3nccn3)sc2n(C[C@H](OC2CCOCC2)c2cc(F)ccc2OC)c1=O [Compound I-70, (R)—N-allyl-2-(1-(2-(5-fluoro-2-methoxyphenyl)-2-((tetrahydro-2H-pyran-4-yl)oxy)ethyl)-5-methyl-2,4-dioxo-6-(2H-1,2,3-triazol-2-yl)-1,4-dihydrothieno[2,3-d]pyrimidin-3(2H)-yl)-2-methylpropanamide]	0.25 to 1 µg/mL (≈ 0.399 to 1.6 µM)	1.01 to 2 µg/mL (≈ 1.61 to 3.19 µM)	> 50 µg/mL	> 50 µg/mL	2 µg/mL (≈ 3.19 µM)	2 µg/mL (≈ 3.19 µM)	2 µg/mL (≈ 3.19 µM)	2 µg/mL (≈ 3.19 µM)	0.4 µg/mL (≈ 0.638 µM)	0.4 µg/mL (≈ 0.638 µM)	1 to 5 nM	1 to 5 nM	0.25 to 1 µg/mL (≈ 0.399 to 1.6 µM)	0.25 to 1 µg/mL (≈ 0.399 to 1.6 µM)	> 50 µg/mL	> 50 µg/mL	1 to 5 nM	1 to 5 nM	2 µg/mL (≈ 3.19 µM)	2 µg/mL (≈ 3.19 µM)	
C=CCN(C)C(=O)C(C)(C)n1c(=O)c2c(C)c(-n3nccn3)sc2n(C[C@H](OC2CCOCC2)c2cc(F)ccc2OC)c1=O [Compound I-71, (R)—N-allyl-2-(1-(2-(5-fluoro-2-methoxyphenyl)-2-((tetrahydro-2H-pyran-4-yl)oxy)ethyl)-5-methyl-2,4-dioxo-6-(2H-1,2,3-triazol-2-yl)-1,4-dihydrothieno[2,3-d]pyrimidin-3(2H)-yl)-N,2-dimethylpropanamide]											1 to 5 nM	1 to 5 nM					1 to 5 nM	1 to 5 nM			MIC (C. parapsilosis; [19]): 0.25 to 1 µg/mL (≈ 0.39 to 1.56 µM); MIC (C. parapsilosis; [20]): 1.01 to 2 µg/mL (≈ 1.58 to 3.12 µM); IC90 (Septoria tritici (St); [21]): > 50 µg/mL; IC90 (Septoria tritici (St); [22]): > 50 µg/mL; IC90 (Diplodia maydis (Dm); [23]): 0.4 µg/mL (≈ 0.624 µM); IC90 (Diplodia maydis (Dm); [24]): 0.4 µg/mL (≈ 0.624 µM); IC90 (Botrtyis cinerea (Bc); [25]): 0.4 µg/mL (≈ 0.624 µM); IC90 (Botrtyis cinerea (Bc); [26]): 0.4 µg/mL (≈ 0.624 µM); IC90 (Rhizoctonia solani (Rs); [27]): 0.08 µg/mL (≈ 0.125 µM); IC90 (Rhizoctonia solani (Rs); [28]): 0.08 µg/mL (≈ 0.125 µM); MIC (C. albicans; [29]): 0.25 to 1 µg/mL (≈ 0.39 to 1.56 µM); MIC (C. albicans; [30]): 0.25 to 1 µg/mL (≈ 0.39 to 1.56 µM); IC90 [1, 31]: > 50 µg/mL; IC90 [1, 32]: > 50 µg/mL; IC90 [2, 33]: 0.08 µg/mL (≈ 0.125 µM); IC90 [2, 34]: 0.08 µg/mL (≈ 0.125 µM)
C=CCO[C@@H](Cn1c(=O)n(C(C)(C)C(=O)NC(C)C)c(=O)c2c(C)c(-n3nccn3)sc21)c1cc(F)ccc1OC [Compound I-72, (R)-2-(1-(2-(allyloxy)-2-(5-fluoro-2-methoxyphenyl)ethyl)-5-methyl-2,4-dioxo-6-(2H-1,2,3-triazol-2-yl)-1,4-dihydrothieno[2,3-d]pyrimidin-3(2H)-yl)-N-isopropyl-2-methylpropanamide]	1.1 to 2 µg/mL (≈ 1.88 to 3.42 µM)	1.01 to 2 µg/mL (≈ 1.73 to 3.42 µM)	> 50 µg/mL	> 50 µg/mL	2 µg/mL (≈ 3.42 µM)	2 µg/mL (≈ 3.42 µM)	2 µg/mL (≈ 3.42 µM)	2 µg/mL (≈ 3.42 µM)	0.4 µg/mL (≈ 0.684 µM)	0.4 µg/mL (≈ 0.684 µM)	1 to 5 nM	1 to 5 nM	2.1 to 4 µg/mL (≈ 3.59 to 6.84 µM)	1.01 to 2 µg/mL (≈ 1.73 to 3.42 µM)	> 50 µg/mL	> 50 µg/mL	1 to 5 nM	1 to 5 nM	2 µg/mL (≈ 3.42 µM)	2 µg/mL (≈ 3.42 µM)	
COc1ccc(F)cc1[C@H](Cn1c(=O)n(C(C)(C)C(=O)NC2CC2)c(=O)c2c(C)c(-n3nccn3)sc21)OC(C)C [Compound I-73, (R)—N-cyclopropyl-2-(1-(2-(5-fluoro-2-methoxyphenyl)-2-isopropoxyethyl)-5-methyl-2,4-dioxo-6-(2H-1,2,3-triazol-2-yl)-1,4-dihydrothieno[2,3-d]pyrimidin-3(2H)-yl)-2-methylpropanamide]											1 to 5 nM	1 to 5 nM					5 to 10 nM	5 to 10 nM			MIC (C. parapsilosis; [19]): 0.25 to 1 µg/mL (≈ 0.428 to 1.71 µM); MIC (C. parapsilosis; [20]): 1.01 to 2 µg/mL (≈ 1.73 to 3.42 µM); IC90 (Septoria tritici (St); [21]): > 50 µg/mL; IC90 (Septoria tritici (St); [22]): > 50 µg/mL; IC90 (Diplodia maydis (Dm); [23]): 2 µg/mL (≈ 3.42 µM); IC90 (Diplodia maydis (Dm); [24]): 2 µg/mL (≈ 3.42 µM); IC90 (Botrtyis cinerea (Bc); [25]): 2 µg/mL (≈ 3.42 µM); IC90 (Botrtyis cinerea (Bc); [26]): 2 µg/mL (≈ 3.42 µM); IC90 (Rhizoctonia solani (Rs); [27]): 0.4 µg/mL (≈ 0.684 µM); IC90 (Rhizoctonia solani (Rs); [28]): 0.4 µg/mL (≈ 0.684 µM); MIC (C. albicans; [29]): 0.25 to 1 µg/mL (≈ 0.428 to 1.71 µM); MIC (C. albicans; [30]): 0.25 to 1 µg/mL (≈ 0.428 to 1.71 µM); IC90 [1, 31]: > 50 µg/mL; IC90 [1, 32]: > 50 µg/mL; IC90 [2, 33]: 2 µg/mL (≈ 3.42 µM); IC90 [2, 34]: 2 µg/mL (≈ 3.42 µM)
